What was measured:
[1] = Metabolism in monkey liver S9 fractions; format: in vitro ADME
Experimental: IMMH-010 metabolism was compared in human, monkey, dog, and rat liver S9 homogenates. IMMH-010 (10 μM) was incubated with liver S9 homogenate protein (0.5 mg protein/mL) and a reduced nicotinamide adenine dinucleotide phosphate (NADPH) regenerating system in a final volume of 0.2 mL Tris-HCl buffer (50 mM, pH 7.4) containing 5 mM MgCl2. The reactions were performed in triplicate. After 2 min of preincubation at 37 °C, reactions were initiated by the addition of IMMH-010 (10 μM). The samples were collected 0, 5, 10, and 20 min after incubation, 2 volumes of acetonitrile were added to terminate the reaction. After vortexing and centrifugation, IMMH-010, YPD-29B, M3, and M4 in the supernatant were analyzed by LC-MS/MS.
(§1) All statistics were calculated using GraphPad Prism 8.0 software (San Diego, CA, USA) designed for one-way ANOVA. Pharmacokinetic parameters were calculated with a non-compartmental analysis using WinNonlin Version 6.3 (Pharsight, Mountain View, CA, USA). ADMET predictor V10.0 (Simulations Plus, Inc., Lancaster, CA, USA) and Microsoft Excel (Microsoft, Redmond, WA, USA) were used to process the data (i.e., half-life (t1/2) and hepatic clearance (CLhep) determination). Data were expressed as means ± standard deviations (SD). Results were considered statistically significant if the p-value <0.05, <0.01 and <0.001.

[2] = Plasma and tumor PK in MC38 colon cancer xenograft mice; format: in vivo, mouse; details: after last oral dose of IMMH-010 maleate 5 mg/kg
Experimental: (§2) After the final dose, tumor and blood samples treated with IMMH-010 maleate (5 mg/kg) were collected over 72 h. Blood was exposed in an EP tube containing 500 mM NaF and 0.5% heparin sodium. Plasma samples were obtained by centrifugation, and tumor tissues were homogenized with 3 volumes (w/v) of saline on ice. The concentration of IMMH-010 and YPD-29B in plasma and tumor samples was quantitated by an LC-MS/MS method.
(§3) LC-MS/MS was performed using a triple quadrupole mass spectrometer (API 4000, AB Sciex, Framingham, MA, USA) with an ultra-performance liquid chromatography system (LC-30A, Shimadzu, Kyoto, Japan). Analyst 1.6.2 software (AB Sciex) was used for data acquisition and analysis. Mobile phase A was 1 mM ammonium acetate and mobile phase B was methanol. The mobile phase was delivered with the following gradient elution profile: 0–2.8 min, 70% B; 2.9 min, 85% B; 3 min, 90% B; 3.1–6.8 min, 100% B; 6.9–12 min, 70% B. The flow rate was 0.3 mL/min, and the column oven was maintained at 35 °C. The specific transitions monitored were 641.3 → 494.2 for IMMH-010, 597 → 155 for YPD-29B, 512 → 247 for M3, and 524 → 246 for M4.
as §1

CES2 = target: T1, CES2 (Homo sapiens, UniProt O00748); experiment: IMMH-010 hydrolysis by recombinant human CES2; format: in vitro ADME; set-up: purchased Cypex Ltd. (Dundee, United Kingdom); details: 10 μM, CES2 0.1 mg/mL, 15 min, 37 °C
T1 sequence (O00748 27-559): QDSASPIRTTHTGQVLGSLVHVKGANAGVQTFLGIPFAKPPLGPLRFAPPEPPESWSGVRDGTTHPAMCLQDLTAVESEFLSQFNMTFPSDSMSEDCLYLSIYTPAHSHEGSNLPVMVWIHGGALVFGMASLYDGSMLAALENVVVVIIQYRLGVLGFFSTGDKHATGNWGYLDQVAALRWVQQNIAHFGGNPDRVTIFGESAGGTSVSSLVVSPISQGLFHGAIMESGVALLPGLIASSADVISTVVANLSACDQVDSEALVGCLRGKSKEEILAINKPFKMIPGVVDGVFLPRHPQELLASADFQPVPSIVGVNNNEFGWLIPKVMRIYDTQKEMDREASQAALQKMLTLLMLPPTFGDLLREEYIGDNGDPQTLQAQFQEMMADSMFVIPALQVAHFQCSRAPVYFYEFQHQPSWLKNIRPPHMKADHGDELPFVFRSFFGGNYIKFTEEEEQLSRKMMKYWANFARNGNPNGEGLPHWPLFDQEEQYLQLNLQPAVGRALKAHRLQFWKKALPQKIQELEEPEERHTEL
Experimental: To verify the role of CES1, CES2, and AADAC in human metabolism of […]-010 (10 μM) was incubated individually with recombinant human CES1, CES2, and AADAC (0.1 mg protein/mL) at 37 °C for 15 min. Lidocaine (500 μM), CPT-11 (2 μM), and phenacetin (1 mM), which are substrates of CES1, CES2, and AADAC, were used as positive controls.

[3] = Plasma and tumor PK in B16F10 melanoma xenograft mice; format: in vivo, mouse; details: B16F10 mice, after last oral dose of IMMH-010 maleate 5 mg/kg
Experimental: as §2, §3, §1

MC38 colon carcinoma = experiment: Antitumor activity in MC38 colon carcinoma xenograft model; format: in vivo, mouse
Experimental: (§4) The antitumor activity of IMMH-010 was evaluated by B16F10 melanoma and MC38 colon carcinoma xenograft models. The B16F10 and MC38 cells were resuspended in saline (1.5 × 10^6 cells/0.2 mL saline) and injected subcutaneously into the right flanks of each mouse on day 0. The treated mice received once-daily oral administration of IMMH-010 maleate (1.25, 2.5, 5, and 10 mg/kg, n = 10) by oral gavage (PO) for 19 consecutive days, whereas the control mice received vehicle (0.5% carboxymethyl cellulose, n = 10). The mice in the positive control group received the anti-mouse PD-L1 antibody (696618M2, Bio X Cell, West Lebanon, NH, USA) at 10 mg/kg intraperitoneally every 3 days (n = 10). The first-line antineoplastic drug cyclophosphamide (CTX) was administered at doses of 80 and 40 mg/kg weekly in the B16F10 and MC38 models (n = 10), respectively. After the last treatment, on day 19, the mice were sacrificed, and the tumor and spleen were stripped and weighed. The tumor growth inhibition (TGI) was calculated as TGI = (1 − treatment group tumor weight/vehicle group tumor weight) × 100.

B16F10 melanoma = experiment: Antitumor activity in B16F10 melanoma xenograft model; format: in vivo, mouse
Experimental: as §4

[4] = MC38, IMMH-010 maleate 1.25 mg/kg PO once daily 19 days
[5] = MC38, IMMH-010 maleate 2.5 mg/kg PO once daily 19 days
[6] = MC38, IMMH-010 maleate 5 mg/kg PO once daily 19 days
[7] = MC38, IMMH-010 maleate 10 mg/kg PO once daily 19 days
[8] = B16F10, IMMH-010 maleate 1.25 mg/kg PO once daily 19 days
[9] = B16F10, IMMH-010 maleate 2.5 mg/kg PO once daily 19 days
[10] = B16F10, IMMH-010 maleate 5 mg/kg PO once daily 19 days
[11] = B16F10, IMMH-010 maleate 10 mg/kg PO once daily 19 days

- estimated CLhep ([1]; from monkey liver S9): 37.2 mL/min/kg
- half-life at 10 μM ([1]; pH 7.4, monkey liver S9 0.5 mg protein/mL, 10 μM, NADPH): 8.28 min
- concentration of IMMH-010 in plasma and tumor tissues [2]: < 1 ng/mL
- remaining amount of IMMH-010 (CES2): 94.2%
- concentration of IMMH-010 in plasma and tumor tissues [3]: < 1 ng/mL
SMILES: CC(C)OC(=O)[C@H](CO)NCc1cc(Cl)c(OCc2cccc(-c3ccccc3)c2Br)cc1OCc1cccnc1 [IMMH-010]
- Tumor Weight (g) X ± SD (MC38 colon carcinoma; [4]): 1.03 ± 0.65 g
- Tumor Weight TGI (%) (MC38 colon carcinoma; [4]): 40%
- Tumor Weight (g) X ± SD (MC38 colon carcinoma; [5]): 1.13 ± 0.78 g
- Tumor Weight TGI (%) (MC38 colon carcinoma; [5]): 34%
- Tumor Weight (g) X ± SD (MC38 colon carcinoma; [6]): 0.42 ± 0.39 g
- Tumor Weight TGI (%) (MC38 colon carcinoma; [6]): 75%
- Tumor Weight (g) X ± SD (MC38 colon carcinoma; [7]): 0.73 ± 0.54 g
- Tumor Weight TGI (%) (MC38 colon carcinoma; [7]): 57%
- Tumor Weight (g) X ± SD (B16F10 melanoma; [8]): 1.78 ± 1.13 g
- Tumor Weight TGI (%) (B16F10 melanoma; [8]): 23%
- Tumor Weight (g) X ± SD (B16F10 melanoma; [9]): 1.26 ± 0.85 g
- Tumor Weight TGI (%) (B16F10 melanoma; [9]): 45%
- Tumor Weight (g) X ± SD (B16F10 melanoma; [10]): 1.39 ± 0.84 g
- Tumor Weight TGI (%) (B16F10 melanoma; [10]): 40%
- Tumor Weight (g) X ± SD (B16F10 melanoma; [11]): 1.04 ± 0.66 g
- Tumor Weight TGI (%) (B16F10 melanoma; [11]): 55%

— publication PMC8143347, “Metabolism and Interspecies Variation of IMMH-010, a Programmed Cell Death Ligand 1 Inhibitor Prodrug” (Pharmaceutics, 2021)
